Experiments:
Leishmania donovani = test: Antileishmanial activity against Leishmania donovani infected in human THP-1 cells assessed as growth inhibition by intramacrophage assay; type: functional, organism-based
[1] = Cytotoxicity against human THP-1 cells assessed as cell growth inhibition; type: toxicity, cell-based
[2] = Selectivity index, ratio of CC50 for cytotoxicity against human THP-1 cells to IC50 for antileishmanial activity against Leishmania donovani infected in human THP-1 cells; type: toxicity, cell-based; details: read-out: Ratio CC50/IC50

Structure (SMILES) | IC50 (Leishmania donovani) | CC50 [1] | selectivity ratio [2]
Cn1c(-c2cccc(C#N)c2)cnc1NC(=O)c1ncc[nH]1 | > 50 µM | > 50 µM | > 1
Cn1c(-c2cccc(F)c2)cnc1NC(=O)c1ccc(F)cc1 | 12 µM | 58 µM | 4.8
COc1cccc(-c2cnc(NC(=O)c3ccc(F)cc3)n2C)c1 | > 100 µM | > 100 µM | > 1
Cn1c(-c2cccc(Cl)c2)cnc1NC(=O)c1ccc(F)cc1 | 22 µM | > 50 µM | > 2.3
Cc1ccc(-c2cnc(NC(=O)c3ccc(F)cc3)n2C)cc1 | 13 µM | 60 µM | 4.5
COc1ccccc1-c1cnc(NC(=O)c2ccc(F)cc2)n1C | > 100 µM | > 100 µM | > 1
Cn1c(-c2ccc(C#N)cc2)cnc1NC(=O)c1ccc(F)cc1 | > 50 µM | > 50 µM | > 1
Cn1c(-c2cccc(C#N)c2)cnc1NC(=O)c1ccc(F)cc1 | 16 µM | > 100 µM | > 6.3
Cn1c(-c2ccccc2)cnc1NC(=O)c1ccc(Br)cc1 | 37 µM | > 100 µM | > 2.7
Cn1c(-c2ccccc2)cnc1NC(=O)c1ccc(Cl)cc1 | 12 µM | > 100 µM | > 8.3
Cn1c(-c2ccccc2Cl)cnc1NC(=O)c1ccc(F)cc1 | 15 µM | > 50 µM | > 3.3
Cn1c(-c2ccc(C#N)cc2)cnc1NC(=O)c1ncc[nH]1 | 14 µM | > 100 µM | > 7.1
Cc1ccccc1-c1cnc(NC(=O)c2ccc(F)cc2)n1C | 3.9 µM | > 50 µM | > 13
Cn1c(-c2cccc(Br)c2)cnc1NC(=O)c1ccc(F)cc1 | 5.4 µM | > 50 µM | > 9.3
Cn1c(-c2ccccc2)cnc1NC(=O)c1cccc(Br)c1 | 3.1 µM | > 50 µM | > 16
Cn1c(-c2ccc(Br)cc2)cnc1NC(=O)c1ccc(F)cc1 | 7.1 µM | 46 µM | 6.5
Cn1c(-c2ccccc2)cnc1NC(=O)c1cc(-c2ccccn2)[nH]n1 | 0.68 µM | > 50 µM | > 74
COc1ccc(-c2cn(C)c(NC(=O)c3ccc(F)cc3)n2)cc1 | > 50 µM | > 50 µM | > 1
Cn1c(-c2ccccc2)cnc1NC(=O)c1cccc(Cl)c1 | 8.5 µM | > 50 µM | > 5.9
Cn1c(-c2ccc([N+](=O)[O-])cc2)cnc1NC(=O)c1ccc(F)cc1 | > 50 µM | > 50 µM | > 1
Cn1c(-c2ccccc2)cnc1NC(=O)c1ccccc1 | 4.5 µM | > 100 µM | > 22
Cn1c(-c2ccccc2[N+](=O)[O-])cnc1NC(=O)c1ccc(F)cc1 | 9.8 µM | 31 µM | 3.2
Cn1c(-c2ccccc2)cnc1NC(=O)c1ccccc1Cl | 5 µM | > 50 µM | > 10
Cn1c(-c2cccc([N+](=O)[O-])c2)cnc1NC(=O)c1ccc(F)cc1 | > 50 µM | > 50 µM | > 1
Cc1cccc(C(=O)Nc2ncc(-c3ccccc3)n2C)c1 | 3.5 µM | > 50 µM | > 14
Cn1cc(-c2ccccc2)nc1NC(=O)c1ccc(F)cc1 | > 50 µM | > 50 µM | > 1
Cn1c(-c2ccccc2Br)cnc1NC(=O)c1ccc(F)cc1 | > 100 µM | > 100 µM | > 1
Cc1ccc(C(=O)Nc2ncc(-c3ccccc3)n2C)cc1 | 2.4 µM | > 50 µM | > 20
Cn1c(-c2ccc(Cl)cc2)cnc1NC(=O)c1ccc(F)cc1 | 4.9 µM | 37 µM | 7.6
